Some test systems named below: HCC 2998; COLO 205; CAKI-1; NCI-H460; Hs-578T; SF-268; NCI/ADR-RES; MDA-MB-435; K562; HT-29; RXF 393; U-251; HL-60; OVCAR-5; SR; OVCAR-3; A498; SNB-75; HOP-92.
What all share (test): inhibition of tumour cell growth, NCI panel, 48 h

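These data come from cells grown in 96-well plates and exposed to compound for 48 hours at five concentrations. At the GI50, growth is halved.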 Calls of active or inactive are those of the source. Cut-off read from the data, not from the text of the source: active = GI50 up to about 1.1 µM and inactive = higher. Positions of bridges follow the written chain, without caps; N, C: chain ends. Where a SMILES comes first, the peptide text is derived from it. Non-standard residues stand in square brackets, D forms with d. Residues, ends and D or L forms follow the SMILES beside them. [ ]: non-standard residue; d: D form. ξ: configuration not given here. *: point of attachment. ξThz(5,5-Me2) = CC1(C)SCNC1C(=O)O; Cbz = O=C(OCc1ccccc1)*; Aib = CC(C)(N)C(=O)O; OBn = c1ccc(CO*)cc1; βAla = NCCC(=O)O

As to `CC1(C)NC(=O)C(NC(=O)C(CC(=O)OCc2ccccc2)NC(=O)OCc2ccccc2)CCCCNC(=O)CCNC1=O` (configuration not stated) (Cbz-D(OBn)K[Aib][βAla]; lactam 2-C; configuration not given here), the GI50 with HCC 2998, with COLO 205, with CAKI-1, in the test on NCI-H460, in the test with Hs-578T and in the test on SF-268 was > 100 µM (inactive) each time. In addition, the GI50 with NCI/ADR-RES, in the test on MDA-MB-435, with K562, in the test on HT-29, with RXF 393 and in the test with U-251 was > 100 µM (inactive) each time. In addition, the GI50 in the test on HL-60 is > 100 µM (inactive); in the test with OVCAR-5, > 100 µM (inactive); in the test on SR, > 10 µM (inactive); with OVCAR-3 it was > 100 µM (inactive); with A498, > 100 µM (inactive); in the test on SNB-75 it was > 100 µM (inactive). In the test with HOP-92, the GI50 was > 100 µM (inactive).

`CSCC[C@H](NC(=O)[C@H](CC(C)C)NC(=O)[C@H](Cc1c[nH]cn1)NC(=O)CNC(=O)C1N(C(=O)[C@@H](C)NC(=O)[C@H](Cc2c[nH]c3ccccc23)NC(=O)[C@H](CCC(N)=O)NC(=O)[C@@H](N)CC(N)=O)CSC1(C)C)C(N)=O` (some centres not stated) (H-NQW[dA][ξThz(5,5-Me2)]GHLM-NH2): the GI50 in the test on HCC 2998, in the test on COLO 205, in the test on CAKI-1, in the test on NCI-H460, with Hs-578T and with SF-268 was > 25 µM (inactive) each time. Besides, the GI50 in the test on NCI/ADR-RES, in the test on MDA-MB-435, in the test with K562, in the test with HT-29, in the test on RXF 393 and in the test on U-251 was > 25 µM (inactive) throughout. In addition, the GI50 with HL-60, in the test on OVCAR-5, in the test on SR, in the test on OVCAR-3, with A498 and in the test on SNB-75 was > 25 µM (inactive) in each case. For the same molecule, the GI50 in the test on HOP-92 was > 25 µM (inactive).

In the case of `CCOP(=O)(Nc1ccc2oc(=O)c3ccccc3c2c1)OCC`, the GI50 in the test with HCC 2998 is 88.5 µM (inactive); in the test on COLO 205, > 100 µM (inactive); in the test on CAKI-1 it was 26.2 µM (inactive); in the test with NCI-H460 it was > 100 µM (inactive); in the test with Hs-578T, 19.8 µM (inactive); with SF-268, 56.6 µM (inactive). Moreover, the GI50 with NCI/ADR-RES was 71.1 µM (inactive); in the test with MDA-MB-435, > 100 µM (inactive); in the test with K562 it was 38.1 µM (inactive); in the test with HT-29, 63.2 µM (inactive); in the test with RXF 393, 91.2 µM (inactive); with U-251 it was 75.2 µM (inactive). The GI50 was 19.4 µM (inactive) in the test with HL-60; 80.4 µM (inactive) in the test on OVCAR-5; 31.7 µM (inactive) in the test with SR; 45.2 µM (inactive) in the test with OVCAR-3; 27.5 µM (inactive) with A498; 66.2 µM (inactive) with SNB-75. The GI50 in the test with HOP-92 is 24.6 µM (inactive).

For `C/C=C/C=C/C1=NN(c2cccc(S(=O)(=O)O)c2)C2(C1)SCC(=O)N2c1nc2ccccc2s1` (configuration not stated), the GI50 with HCC 2998 was > 100 µM (inactive); in the test with COLO 205, > 100 µM (inactive); with CAKI-1, 86.3 µM (inactive); in the test on NCI-H460 it was 45.5 µM (inactive); in the test on Hs-578T, > 100 µM (inactive); in the test with SF-268, 89.7 µM (inactive). Further, the GI50 is 51.2 µM (inactive) in the test with NCI/ADR-RES; 36.1 µM (inactive) in the test on MDA-MB-435; 44 µM (inactive) with K562; > 100 µM (inactive) in the test with HT-29; > 100 µM (inactive) in the test with RXF 393; 37.9 µM (inactive) with U-251. The GI50 in the test on HL-60 is > 100 µM (inactive); in the test on OVCAR-5, > 100 µM (inactive); in the test on SR it was 25.1 µM (inactive); with A498, 50.5 µM (inactive); with SNB-75, 68.5 µM (inactive); in the test on HOP-92, 26.2 µM (inactive).

Consider `COc1ccc(OC)c(/C=C/c2ccnc3ccccc23)c1`, for which the GI50 was 1.24 µM (inactive) in the test with HCC 2998; 0.277 µM (active) in the test on COLO 205; 1.28 µM (inactive) in the test with CAKI-1; 0.371 µM (active) with NCI-H460; 0.34 µM (active) with Hs-578T; 0.647 µM (active) in the test with SF-268. For the same molecule, the GI50 with NCI/ADR-RES is 0.255 µM (active); in the test with MDA-MB-435 it was 0.167 µM (active); with K562 it was 0.191 µM (active); in the test on HT-29 it was 0.321 µM (active); in the test on RXF 393 it was 0.377 µM (active); in the test on U-251, 0.374 µM (active). Besides, the GI50 in the test with HL-60 is 0.2 µM (active); in the test with OVCAR-5, 2.43 µM (inactive); in the test with SR, 0.277 µM (active); in the test on OVCAR-3 it was 0.269 µM (active); in the test with A498 it was 0.452 µM (active); with HOP-92, 1.07 µM (active).

As for `CCOC(=O)CCC(C(=O)OCC)n1nnc2cc(Nc3c(C)[n+]([O-])c4ccc(Cl)cc4[n+]3[O-])ccc21` (configuration not stated), the GI50 in the test with COLO 205 is 44.8 µM (inactive); in the test on CAKI-1 it was 57 µM (inactive); in the test with NCI-H460, 39.1 µM (inactive); with Hs-578T, > 100 µM (inactive); with SF-268 it was 34.8 µM (inactive); in the test with NCI/ADR-RES it was 47.1 µM (inactive). Besides, the GI50 in the test on MDA-MB-435 was > 100 µM (inactive); with K562, 69.3 µM (inactive); with HT-29, 67.8 µM (inactive); with RXF 393, 57.9 µM (inactive); in the test on U-251 it was 80 µM (inactive); in the test with HL-60, 45 µM (inactive). For the same molecule, the GI50 in the test with OVCAR-5 was > 100 µM (inactive); in the test with SR it was 48.6 µM (inactive); in the test with OVCAR-3 it was 40.4 µM (inactive); in the test with A498, > 100 µM (inactive); in the test on SNB-75, 93.1 µM (inactive); in the test on HOP-92, 50.8 µM (inactive).

With `COc1cc2c(cc1OC)C1CN3C(=O)CCC3C(O)C1c1cc(OC)c(OC)cc1-2` (configuration not stated), the GI50 in the test with HCC 2998, in the test on COLO 205, with CAKI-1, in the test with NCI-H460, in the test on Hs-578T and in the test with SF-268 was > 100 µM (inactive) in each case. For the same molecule, the GI50 in the test on NCI/ADR-RES, in the test on MDA-MB-435, with K562, in the test with HT-29, in the test on RXF 393 and with U-251 was > 100 µM (inactive) each time. For the same molecule, the GI50 in the test on HL-60 was > 100 µM (inactive); with OVCAR-5 it was > 100 µM (inactive); in the test on SR it was > 100 µM (inactive); with A498, > 100 µM (inactive); with SNB-75, 20.9 µM (inactive); with HOP-92, > 100 µM (inactive).

As for `CCOc1cc(NC(C)=O)ccc1C(=O)NN1C(=O)/C(=C/c2ccco2)N=C1c1ccccc1`, the GI50 in the test on HCC 2998 is > 100 µM (inactive); in the test with COLO 205, > 100 µM (inactive); with CAKI-1, > 100 µM (inactive); with NCI-H460, > 100 µM (inactive); in the test with Hs-578T it was 42.8 µM (inactive); with SF-268 it was > 100 µM (inactive). Besides, the GI50 in the test with NCI/ADR-RES is > 100 µM (inactive); in the test with MDA-MB-435 it was > 100 µM (inactive); with K562, 26.8 µM (inactive); in the test with HT-29 it was > 100 µM (inactive); with RXF 393, > 100 µM (inactive); in the test on HL-60 it was > 100 µM (inactive). For the same molecule, the GI50 with OVCAR-5 was > 100 µM (inactive); in the test on SR, 41.5 µM (inactive); with OVCAR-3, > 100 µM (inactive); in the test on A498, > 100 µM (inactive); in the test with SNB-75, > 100 µM (inactive); in the test with HOP-92 it was 36.2 µM (inactive).

Turning to `COc1ccc(Oc2nc3c(N)cc(C(F)(F)F)cc3nc2-c2ccccc2)cc1`, the GI50 was 38.8 µM (inactive) in the test with HCC 2998; 12.8 µM (inactive) in the test on COLO 205; 21.8 µM (inactive) with CAKI-1; 21.8 µM (inactive) in the test on NCI-H460; 16.3 µM (inactive) with Hs-578T; 20.6 µM (inactive) with SF-268. Further, the GI50 is 27.2 µM (inactive) in the test on NCI/ADR-RES; 46.3 µM (inactive) with MDA-MB-435; > 100 µM (inactive) in the test with K562; 10.8 µM (inactive) with HT-29; 11.6 µM (inactive) in the test with RXF 393; 35.6 µM (inactive) in the test with U-251. Further, the GI50 in the test with HL-60 was 59.6 µM (inactive); in the test with SR, 19.9 µM (inactive); with A498 it was 28.2 µM (inactive); with SNB-75, 17.7 µM (inactive); in the test with HOP-92, 40.8 µM (inactive).

Take `Cc1nc(C)c(N2CCN(S(N)(=O)=O)CC2)c(O)n1`: the GI50 with HCC 2998, with COLO 205, with CAKI-1, with NCI-H460, with Hs-578T and in the test with SF-268 was > 100 µM (inactive) each time. For the same molecule, the GI50 in the test with NCI/ADR-RES, in the test with MDA-MB-435, in the test on K562, in the test on HT-29, in the test with RXF 393 and in the test with U-251 was > 100 µM (inactive) each time. Moreover, the GI50 with HL-60 is > 100 µM (inactive); with SR it was > 100 µM (inactive); in the test on OVCAR-3, > 100 µM (inactive); in the test on A498, > 100 µM (inactive); in the test with SNB-75, 0.101 µM (active); in the test with HOP-92, > 100 µM (inactive).

The record behind these values is ChEMBL document CHEMBL1201862, “PubChem BioAssay data set” (2004).
